# Patent US20240067632A1, “WEE1 Degrading Compounds and Uses Thereof” (Bristol-Myers Squibb Company, priority 2022, published 2024)
# Like-named read-outs stand apart in the source and are kept apart here.
# Tests used:
# MKN45 cells = experiment: MKN45 cell proliferation assay (Cell-Titer-Glo, 120 h); type: cell-based; conditions: for EC50: Homo sapiens, MKN-45, 120 h, Cell-Titer-Glo, read-out: MKN45 Cell Prolif. 120 hr (EC50); for MKN45 Cell Prolif. 120 hr (Ymin-Obs): minimal percent of DMSO control observed in the concentrations tested
# Outline: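 Growth inhibition was read as blank-corrected Cell-Titer-Glo luminescence expressed as percent DMSO control after 120 h at 37 C, 400 cells/well. Compounds tested in triplicate as 10-point half-log series from 1 or 10 uM, 0.1% DMSO; four-parameter fit gave EC50, and lowest observed percent control was reported as Ymin-obs.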
# WEE1 = molecular target: T1, WEE1 (Homo sapiens, UniProt P30291+Q96SW2); experiment: WEE1-ePL degradation assay (LentiX-WEE1-ePL-GSPT1-ND cells, InCELL Hunter luminescence, 4 h); type: cell-based; conditions: 293T-LentiX WEE1-ePL cells; for DC50: read-out: 293T-LentiX WEE1-ePL Degradation 4 hr (EC50)
# T1 construct: C-terminal ePL-tagged (DiscoverX, Fremont, CA) full-length WEE1 expression construct; expressed in transfected cells; host or cells: LentiX-HEK293T (Invitrogen), lentiviral transduction; co-expressing GSPT1-GN (G576N, lacking the first 158 amino acids)
# Outline: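 First, compounds were pre-plated as 10-point, 3-fold dilutions (top 1 uM or 10 uM) with DMSO control; next, WEE1-ePL-expressing HEK293T cells were added and held 4 h at 37 °C; finally, InCELL Hunter reagent was applied for 30 min before luminescence reading. A 4PL fit gave EC50 and Ymin.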
# [1] = lower limit of the fit (0 = luciferase inhibitor, Ymax = DMSO control)
# [2] = lower limit of the fit (Ymin=0 luciferase inhibitor, Ymax DMSO control)
Structure (SMILES),EC50 (MKN45 cells; growth inhibition) [nM],293T-LentiX WEE1-ePL Degradation 4 hr (Ymin) (WEE1; [1]),DC50 (WEE1) [nM],EC50 (MKN45 cells) [nM],293T-LentiX WEE1-ePL Degradation 4 hr (Ymin) (WEE1; [2]),MKN45 Cell Prolif. 120 hr (Ymin-Obs) (MKN45 cells)
"O=C1CCC(N2Cc3cc(O[C@H]4CCN(Cc5cc6cc(F)ccc6cn5)C4)c(F)cc3C2=O)C(=O)N1 (stereo partly drawn) [3-(6-fluoro-5-{[(3S)-1-[(6-fluoroisoquinolin-3-yl)methyl]pyrrolidin-3-yl]oxy}-1-oxo-2,3-dihydro-1H-isoindol-2-yl)piperidine-2,6-dione]",104,36,14.3,,,11.55
"O=C1CCC(N2Cc3cc(O[C@H]4CCN(Cc5cc6ccccc6cn5)C4)c(F)cc3C2=O)C(=O)N1 (stereo partly drawn) [3-(6-fluoro-5-{[(3S)-1-[(isoquinolin-3-yl)methyl]pyrrolidin-3-yl]oxy}-1-oxo-2,3-dihydro-1H-isoindol-2-yl)piperidine-2,6-dione]",53.7,34,10.6,,,7.57
"O=C1CCC(N2Cc3cc(O[C@H]4CCN(Cc5ccc6nc(C7CCOCC7)ccc6c5)C4)c(F)cc3C2=O)C(=O)N1 (stereo partly drawn) [3-(6-fluoro-5-{[(3S)-1-{[2-(oxan-4-yl)quinolin-6-yl]methyl}pyrrolidin-3-yl]oxy}-1-oxo-2,3-dihydro-1H-isoindol-2-yl)piperidine-2,6-dione]",,,3,7.69,30.27,15.44
"O=C1CCC(N2Cc3ccc(O[C@H]4CCN(Cc5cc6ccccc6cn5)C4)cc3C2=O)C(=O)N1 (stereo partly drawn) [3-(6-{[(3S)-1-[(isoquinolin-3-yl)methyl]pyrrolidin-3-yl]oxy}-1-oxo-2,3-dihydro-1H-isoindol-2-yl)piperidine-2,6-dione]",0.399,93.8,,,,82.45
"CNC(=O)c1ccc2cc(CN3CC[C@H](Oc4ccc5c(c4)CN(C4CCC(=O)NC4=O)C5=O)C3)ncc2c1 (stereo partly drawn) [3-{[(3S)-3-{[2-(2,6-dioxopiperidin-3-yl)-1-oxo-2,3-dihydro-1H-isoindol-5-yl]oxy}pyrrolidin-1-yl]methyl}-N-methylisoquinoline-7-carboxamide]",66.8,28,29.8,,,7.51
"N#Cc1ccc2cc(CN3CC[C@H](Oc4ccc5c(c4)CN(C4CCC(=O)NC4=O)C5=O)C3)ncc2c1 (stereo partly drawn) [3-{[(3S)-3-{[2-(2,6-dioxopiperidin-3-yl)-1-oxo-2,3-dihydro-1H-isoindol-5-yl]oxy}pyrrolidin-1-yl]methyl}isoquinoline-7-carbonitrile]",10,29,1.87,,,8.661
"O=C1CCC(N2Cc3cc(O[C@H]4CCN(Cc5ccc6nc(N7CCS(=O)(=O)CC7)ncc6c5)C4)ccc3C2=O)C(=O)N1 (stereo partly drawn) [4-(6-{[(3S)-3-{[2-(2,6-dioxopiperidin-3-yl)-1-oxo-2,3-dihydro-1H-isoindol-5-yl]oxy}pyrrolidin-1-yl]methyl}quinazolin-2-yl)-1λ^6-thiomorpholine-1,1-dione]",51,42,23.6,,,17.09

# Further lines, with some results ahead:
EC50 (MKN45 cells; growth inhibition) [nM],293T-LentiX WEE1-ePL Degradation 4 hr (Ymin) (WEE1; [1]),DC50 (WEE1) [nM],EC50 (MKN45 cells) [nM],293T-LentiX WEE1-ePL Degradation 4 hr (Ymin) (WEE1; [2]),Structure (SMILES),MKN45 Cell Prolif. 120 hr (Ymin-Obs) (MKN45 cells)
> 10000,64.5,83.9,,,"Cc1ccc2cc(CN3C[C@@H](Oc4ccc5c(c4)CN(C4CCC(=O)NC4=O)C5=O)C[C@@H]3C)ccc2n1 (stereo partly drawn) [3-(5-{[(3S,5S)-5-methyl-1-[(2-methylquinolin-6-yl)methyl]pyrrolidin-3-yl]oxy}-1-oxo-2,3-dihydro-1H-isoindol-2-yl)piperidine-2,6-dione]",82.25
,87.055,,,,"Cc1nc2ccccc2cc1CN1CC[C@H](Oc2ccc3c(c2)C(=O)N(C2CCC(=O)NC2=O)C3)C1 (stereo partly drawn) [3-(6-{[(3S)-1-[(2-methylquinolin-3-yl)methyl]pyrrolidin-3-yl]oxy}-1-oxo-2,3-dihydro-1H-isoindol-2-yl)piperidine-2,6-dione]",79.9
> 10000,69.05,5070,,,"Cc1ccc2cc(CN3CC[C@H](Oc4ccc5c(c4)CN(C4(C)CCC(=O)NC4=O)C5=O)C3)ccc2n1 (stereo partly drawn) [3-methyl-3-(5-{[(3S)-1-[(2-methylquinolin-6-yl)methyl]pyrrolidin-3-yl]oxy}-1-oxo-2,3-dihydro-1H-isoindol-2-yl)piperidine-2,6-dione]",83.56
5.83,29,1.2,,,"N#Cc1nc2ccccc2cc1CN1CC[C@H](Oc2ccc3c(c2)CN(C2CCC(=O)NC2=O)C3=O)C1 (stereo partly drawn) [3-{[(3S)-3-{[2-(2,6-dioxopiperidin-3-yl)-1-oxo-2,3-dihydro-1H-isoindol-5-yl]oxy}pyrrolidin-1-yl]methyl}quinoline-2-carbonitrile]",6.985
29.4,40,19.1,,,"O=C1CCC(N2Cc3cc(O[C@H]4CCN(Cc5ccc6nc(N7CCS(=O)(=O)CC7)ccc6c5)C4)ccc3C2=O)C(=O)N1 (stereo partly drawn) [4-(6-{[(3S)-3-{[2-(2,6-dioxopiperidin-3-yl)-1-oxo-2,3-dihydro-1H-isoindol-5-yl]oxy}pyrrolidin-1-yl]methyl}quinolin-2-yl)-1λ^6-thiomorpholine-1,1-dione]",10.02
91.6,32.7,22.3,,,"N#Cc1ccc2cc(CN3C[C@@H](F)[C@H](Oc4ccc5c(c4)CN(C4CCC(=O)NC4=O)C5=O)C3)ccc2n1 (stereo partly drawn) [6-{[(3R,4R)-3-{[2-(2,6-dioxopiperidin-3-yl)-1-oxo-2,3-dihydro-1H-isoindol-5-yl]oxy}-4-fluoropyrrolidin-1-yl]methyl}quinoline-2-carbonitrile]",37.36
22.7,33.71,13.1,,,"N#Cc1ccc2cc(CN3C[C@H](F)[C@H](Oc4ccc5c(c4)CN(C4CCC(=O)NC4=O)C5=O)C3)ccc2n1 (stereo partly drawn) [6-{[(3R,4S)-3-{[2-(2,6-dioxopiperidin-3-yl)-1-oxo-2,3-dihydro-1H-isoindol-5-yl]oxy}-4-fluoropyrrolidin-1-yl]methyl}quinoline-2-carbonitrile]",24.13
2.72,27.19,1.71,,,"N#Cc1ccc2cc(CN3CC[C@H](Oc4ccc5c(c4)CN([C@H]4CCC(=O)NC4=O)C5=O)C3)cc(F)c2n1 [6-{[(3S)-3-({2-[(3S)-2,6-dioxopiperidin-3-yl]-1-oxo-2,3-dihydro-1H-isoindol-5-yl}oxy)pyrrolidin-1-yl]methyl}-8-fluoroquinoline-2-carbonitrile]",8.579
,,2.46,6.01,28.06,"N#Cc1ccc2cc(CN3CC[C@H](Oc4ccc5c(c4)CN([C@H]4CCC(=O)NC4=O)C5=O)C3)ccc2n1 [6-{[(3S)-3-({2-[(3S)-2,6-dioxopiperidin-3-yl]-1-oxo-2,3-dihydro-1H-isoindol-5-yl}oxy)pyrrolidin-1-yl]methyl}quinoline-2-carbonitrile]",14.78
